# Entries after “also recorded” stand apart in the source; their conditions may differ.
# Columns and labels:
# [1] = Dendrimer-drug binding test (polyacrylamide gel delay), methotrexate; conditions: dendrimer 100 μM, charge ratios 1+/1− to 8+/1−, 37° C., 1 hour
# Experimental: (§1) The drugs chosen to perform the tests, all with at least one negative charge at physiological pH, were: • Methotrexate (sodium salt): • 1 charge (−) • Supplying laboratory: Almirall • Presentation: 25 mg/ml solution • Excipients: NaCl, NaOH, HCl, double-distilled H2O • Heparin (sodium salt) • Several charges (−) • Supplying laboratory: Rovi • Presentation: 10 mg/ml solution (1000 U) • Excipients: methyl p-oxybenzoate, propyl p-oxybenzoate, NaCl, double-distilled H2O • Insulin (recombinant human insulin) • 4 charges (−) • Supplying laboratory: Novo Nordisk • Product trade name: Actrapid • Presentation: 3.5 mg/ml solution (100 U) • Excipients: ZnCl2, HCl, NaOH, double-distilled H2O
# (§2) The determination of the bond and complex formation between the dendrimer and the drug was performed by evaluating the delay in the polyacrylamide gel of the dendrimer bound to drug with respect to the free dendrimer: • Complex formation: It is performed in a final volume of the mixture of 30 μl, which is the maximum volume to load in the gel. To do this, one starts from the necessary quantity of dendrimer that provides a perfectly identifiable band by staining with silver nitrate in the gel once the electrophoresis has been carried out: 20 μl of a 100 μM solution, which corresponds to […] molecules. The drug is added in the 10 μl at different concentrations to produce the chosen (+) and (−) charge ratios, also determining the quantity of drug molecules present in the mixture. An incubation of said mixture was performed at 37° C. during 1 hour to give time for a more thermodynamically stable complex to form, although more time may be needed for its formation. Each complex is performed in duplicate. • Electrophoresis and gel staining: The gels used were 7.5% polyacrylamide/bisacrylamide, prepared with 1.5M Tris pH 8.8. Each electrophoresis was carried out at 90 volts during 4 hours, after which the gel was stained with silver nitrate and photographed. […]
# [2] = Dendrimer-drug binding test (polyacrylamide gel delay), heparin; conditions: dendrimer 100 μM, heparin 10, 1, 0.5, 0.1 U, 37° C., 1 hour
# Experimental: as §1, §2
# [3] = target: T1, Insulin (recombinant human insulin) (Homo sapiens, UniProt P01308); experiment: Dendrimer-drug binding test (polyacrylamide gel delay), insulin; conditions: dendrimer 100 μM, insulin 1, 0.5, 0.1, 0.05 U, 37° C., 1 hour
# T1 construct: Despite having its molecular weight (5825 g/mol) and establishing an average of 4 (−) charges; purchased Novo Nordisk Actrapid (trade name; no catalogue number given)
# Experimental: as §1, §2
# U87-MG cells [4] = experiment: Proliferation of U-87-MG cells incubated with dendrimers (MTS); type: cell-based; conditions: 1 μM, 5 μM and 10 μM, 3 days
# Experimental: (§3) The tests were performed with the dendrimers NN (2G-[Si(O(CH2)2N(Me)(CH2)2NMe3^+I^−)]8 (26)) and NN16 (2G-[Si(O(CH2)2N^+(Me)2(CH2)2NMe3^+2I^−)]8 (36)). The transfection tests were performed with the anti-rev RF ODN (SEQ ID NO:2). The culture medium was DMEM+10% bovine foetal serum.
# (§4) Different experiments were performed, one with SK-N-MC cells and another with U-87-MG cells, which studied the effect of the dendrimers on the proliferation of said lines. For this, 7000 cells/well were plated of the corresponding in a 96-well dish. […] As positive proliferation control, cells were incubated with 20 μg/ml of LPS and, as positive death induction control, cells were used incubated with 7% DMSO. As negative control untreated cells were used.
# SK-N-MC cells [5] = experiment: Proliferation of SK-N-MC cells incubated with dendrimers (MTS); type: cell-based; conditions: 3 days
# Experimental: as §3, §4
# U87-MG cells [6] = experiment: Toxicity in U-87-MG cells: tests with MTT
# Experimental: A test with U-87-MG cells was performed, wherein the effect of the dendrimers on the viability of said lines was studied at different times. To do this, 15000 (24 hour incubations), 7000 (3 day incubations) or 1500 (7 day incubations) cells per well were plated in 96-well plates. The cells were incubated with different concentrations (1 μM, 5 μM and 10 μM) either NN dendrimer or NN16 dendrimer, during 24 hours, 3 days and 7 days. […] Two different positive controls were also used: cells treated with 7% DMSO and cells treated with 1% Triton X-100.
# In the case of Superfect, three doses were tested, the optimum dose recommended by the manufacturer (2.5 μl), a lower dose (1.25 μl) and another higher dose (5 μl). With regard to Polyfect, specifically designed for adherent cells, the three doses tested were: optimum dose (0.6 μl), lower dose (0.3 μl) and higher dose (1.2 μl).
# After each corresponding incubation time, a test was performed with MTT analogous to that described in Example 38. At the absorbance value obtained in the untreated cells (C−) it was given the value of 1 and the moiety of the absorbencies produced was used to refer to it.
# U87-MG cells [7] = experiment: Toxicity in U-87-MG cells: LDH in the supernatant; conditions: 24 hours
# From the text: The concentrations and volumes of each one of these compounds were the same used in the test performed with MTT. The commercial kit Cytotoxicity Detection KitPLUS (LDH), from Roche Applied Science was used to determine lactate dehydrogenase, following the manufacturer's instructions.
# SK-N-MC cells [8] = experiment: Toxicity in SK-N-MC cells: test with MTT; type: cell-based; conditions: 24 hours, 1, 5, 10 μM
# U87-MG cells [9] = experiment: Transfection of U87-MG cells mediated by dendrimers (flow cytometry); type: cell-based; conditions: dendriplex with anti-rev oligonucleotide 250 nM, − charge/+ charge ratio 1:8, 24 hours
# Experimental: (§5) 100000 cells/well were plated of the corresponding cell line in a 24-well plate with 500 μl of medium.
# (§6) Dendriplexes were formed with dendrimers NN and NN16 and the fluorescent anti-rev antisense oligonucleotide in a total volume of 75 μl of medium without serum, wherein the anti-rev oligonucleotide was mixed at a concentration 250 nM and the corresponding dendrimer in different proportions, so that different − charge/+ charge ratios were obtained: 1:1, 1:2, 1:4 and 1:8. The mixture was incubated during half an hour at ambient temperature and then it was added to the corresponding well to incubate the cells with dendriplexes.
# (§7) After 24 hours of incubation, the cells were removed from the well, they were washed twice with PBS, they were incubated for 1 minute with acid glycine to remove the possible moieties of dendriplexes which may have remained adhered on the cell membrane, and a final wash was performed with PBS. Finally, the cells were resuspended in 500 μl of PBS and the quantity of fluorescent oligonucleotide inside the cell was quantified by flow cytometry.
# SK-N-MC cells [10] = experiment: Transfection of SK-N-MC cells mediated by dendrimers (flow cytometry); type: cell-based; conditions: dendriplex with anti-rev oligonucleotide 250 nM, − charge/+ charge ratio 1:4, 24 hours
# Experimental: as §5, §6, §7
# T1 sequence (P01308 25-54 limits assumed): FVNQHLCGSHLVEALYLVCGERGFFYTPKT
# T1 sequence (P01308 90-110 limits assumed): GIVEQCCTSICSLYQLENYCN
smiles,measurement,setting,value
"C[N+](C)(C)CC[N+](C)(C)CCO[Si](C)(C)CCC[Si](C)(CCC[Si](CCC[Si](C)(CCC[Si](C)(C)OCC[N+](C)(C)CC[N+](C)(C)C)CCC[Si](C)(C)OCC[N+](C)(C)CC[N+](C)(C)C)(CCC[Si](C)(CCC[Si](C)(C)OCC[N+](C)(C)CC[N+](C)(C)C)CCC[Si](C)(C)OCC[N+](C)(C)CC[N+](C)(C)C)CCC[Si](C)(CCC[Si](C)(C)OCC[N+](C)(C)CC[N+](C)(C)C)CCC[Si](C)(C)OCC[N+](C)(C)CC[N+](C)(C)C)CCC[Si](C)(C)OCC[N+](C)(C)CC[N+](C)(C)C [NN16, 2G-[Si(O(CH2)2N^+(Me)2(CH2)2NMe3^+2I^−)]8]",dendrimer-methotrexate complex formation (delay in gel),[1],complex is formed
same,dendrimer-heparin complex formation (delay in gel),[2],complex is formed
same,dendrimer-insulin complex formation (delay in gel),[3],complex is formed
same,effect on cell proliferation (MTS),U87-MG cells [4],neither induce proliferation nor cell death
same,effect on cell proliferation (MTS),SK-N-MC cells [5]; 1 μM and 5 μM,do not produce toxicity nor cell proliferation
same,effect on cell proliferation (MTS),SK-N-MC cells [5]; 10 μM,toxic
same,"viability (MTT), untreated cells (C−) = 1","U87-MG cells [6]; 3 days, any one of the three concentrations (1, 5, 10 μM)",~0.8
same,"viability (MTT), untreated cells (C−) = 1","U87-MG cells [6]; 7 days, 10 μM",0.7
same,"cytotoxicity (LDH), comparison",U87-MG cells [7],greater cytotoxicity as their concentration increases; also recorded: less toxic than NN
same,"toxicity (MTT), comparison",SK-N-MC cells [8],least toxicity
same,percentage of cells transfected,U87-MG cells [9],97.8%
same,percentage of cells transfected (maximum transfection),SK-N-MC cells [10],82.3%
